Patent US20070185093A1, “Benzotriazepine derivatives and their use as gastrin and cholecystokinin receptor ligands” (priority 2003, published 2007)

Target: T1, human gastrin (CCK2) receptors (Homo sapiens, UniProt P32239)
T1 construct: amplified by PCR (polymerase chain reaction) from the start codon to the stop codon; expressed in transfected cells
T1 sequence (P32239 1-447): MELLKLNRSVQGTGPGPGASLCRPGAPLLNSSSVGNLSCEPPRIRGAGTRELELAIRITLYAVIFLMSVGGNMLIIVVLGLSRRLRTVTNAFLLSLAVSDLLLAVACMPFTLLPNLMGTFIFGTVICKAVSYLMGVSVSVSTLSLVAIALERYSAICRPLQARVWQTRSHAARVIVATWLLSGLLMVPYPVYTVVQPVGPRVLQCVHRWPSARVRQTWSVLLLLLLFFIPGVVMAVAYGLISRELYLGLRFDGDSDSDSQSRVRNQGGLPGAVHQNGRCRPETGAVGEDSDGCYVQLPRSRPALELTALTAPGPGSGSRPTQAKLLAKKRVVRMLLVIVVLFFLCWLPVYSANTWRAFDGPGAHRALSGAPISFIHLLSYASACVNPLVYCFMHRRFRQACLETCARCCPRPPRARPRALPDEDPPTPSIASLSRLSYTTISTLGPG
Assay: Displacement of [125I]-BH-CCK-8S from human CCK2 receptors cloned into NIH3T3 cells (membranes)
Format: binding
Conditions: hCCK2 receptor, NIH3T3 clone 7 membranes, [125I]-BH-CCK-8S 200 pM, 150 min at 21° C.; ± s.e. mean; read-out: CCK2 (pKI) (converted)
Protocol: A number of compounds were tested at human gastrin (CCK2) receptors which have been cloned into an NIH3T3 cell line as follows:
Stable clones expressing hCCK2R were screened for their ability to specifically bind [^125I]-BH-CCK-8S in tissue concentration curve studies (0.3×10^4-1×10^6 cells per tube) using the assay conditions described below. […] In addition there was a direct linear correlation between the amount of specific bound label and the cell concentration up to and including 2.5×10^5 cells per ml. Based on the above, this clone was chosen for expansion and fall binding characterisation.
Cultured clone 7 cells were stored as frozen pellets at −70° C. until required. Cell pellets were thawed in CCK2 assay buffer ((mM): 10 Hepes; 130 NaCl; 5 MgCl2; 4.7 KCl; 1 EGTA (pH7.2 at 21° C.) with 0.125 g Bacitracin added to each litre), and homogenised using a Polytron (4×1 s). The resulting membrane preparation was centrifuged at 39,800 g for 15 min at 4° C. Each cell pellet was re-suspended in fresh buffer and re-centriflged as above. The final pellet was re-suspended by homogenisation (Teflon-in-glass), to the appropriate membrane concentration.
For saturation and competition studies, the cell membranes prepared as in step d (3×10^4 cells per 400 μl) were incubated for 150 min at 21° C. in a final volume of 0.5 ml with CCK2 assay buffer containing [^125I]-BH-CCK-8S (50 μl; 200 pM). Total and non-specific binding of [^125I]-BH-CCK-8S were defined, respectively using 50 μl of buffer and 50 μl of 10 μM YM022. The assays were terminated by rapid filtration through pre-soaked Whatman GF/B filters which were washed (3×3 ml) with ice-cold 50 mM Tris HCl (pH7.4 @ 4° C.). Filters were transferred to plastic gamma counter vials and bound radioactivity determined by counting (1 min) in a Clini-gamma counter.
The binding of [^125I]-BH-CCK-8S to the hCCK2 receptor isoform was saturable. […] Saturation data were analysed using the curve-fitting programmes, Radlig and Ligand.
A number of compounds of the invention as well as reference compounds were tested for their ability to displace [^125I]-BH-CCK-8S from the receptors prepared as above. Briefly, dilution and addition of test compounds, radioligand and cell membranes were performed using a Beckman Biomek 2000. The ability of compounds to inhibit the specific binding of to hCCK2 receptors was determined in triplicate over a range of concentrations at half-log intervals. Total and non-specific binding was determined for each compound. Each compound was tested in a minimum of three experiments. Competition data were fitted to the Hill equation using Graph-pad Prism software to obtain estimates of the IC50 (mid-point location parameter) and nH (mid-point slope parameter). Dissociation constants (KI) were determined using the Cheng & Prusoff equation (1973) to correct for the receptor occupancy by the radioligand. All compounds were dissolved in DMF to give a stock concentration of either 1 or 10 mM and subsequent dilutions were made in assay buffer.

With `CC1(C(=O)CN2C(=O)N(CC(=O)Nc3cccc(C(=O)O)c3)NC(C3CCCCC3)c3ccccc32)CCCCC1` (racemic) [Example 8, (+/−)-3-(2-{5-Cyclohexyl-1-[2-(1-methyl-cyclohexyl)-2-oxo-ethyl]-2-oxo-1,2,4,5-tetrahydro-3H-1,3,4-benzotriazepin-3-yl}-acetylamino)-benizoic acid] the Ki was 7.76 nM.
`CC(C)(C)C(=O)CN1C(=O)N(CC(=O)Nc2cccc(C(=O)O)c2)NC(C2CCCCC2)c2ccccc21` (racemic) [Example 1, (+/−)-3-{2-[5-Cyclohexyl-1-(3,3-dimethyl-2-oxo-butyl)-2-oxo-1,2,4,5-tetrahydro-3H-1,3,4-benzotriazepin-3-yl]-acetylamino)-benzoic acid] gave a Ki of 17.8 nM.
`O=C(CN1NC(C2CCCCC2)c2ccccc2N(CC(=O)C2CCCC2)C1=O)Nc1cccc(C(=O)O)c1` (single isomer, unassigned; (-)) [Example 12, (−)-3-{2-[5-Cyclohexyl-1-(2-cyclopentyl-2-oxo-ethyl)-2-oxo-1,2,4,5-tetrahydro-3H-1,3,4-benzotriazepin-3-yl]-acetylamino}-benzoic acid] was tested, and the Ki was 1.58 nM.
In the case of `CNc1cccc(NC(=O)CN2NC(C3CCCCC3)c3ccccc3N(CC(=O)C3CCCC3)C2=O)c1` (racemic) [Example 7, (+/−)-2-[5-Cyclohexyl-1-(2-cyclopentyl-2-oxo-ethyl)-2-oxo-1,2,4,5-tetrahydro-3H-1,3,4-benzotriazepin-3-yl]-N-(3-methylamino-phenyl)-acetamide], the Ki is reported as 2.63 nM.
In the case of `O=C(CN1NC(C2CCCCC2)c2ccccc2N(CC(=O)C2CCCC2)C1=O)Nc1cccc(C(=O)O)c1` (racemic) [Example 4, (+/−)-3-{2-[5-Cyclohexyl-1-(2-cyclopentyl-2-oxo-ethyl)-2-oxo-1,2,4,5-tetrahydro-3H-1,3,4-benzotriazepin-3-yl]-acetylamino}-benzoic acid], the Ki is reported as 1.48 nM.
`O=C(CN1NC(C2CCCCC2)c2ccccc2N(CC(=O)C2CCCC2)C1=O)Nc1cccc(C(=O)O)c1` (single isomer, unassigned; (+)) [Example 11, (+)-3-{2-[5-Cyclohexyl-1-(2-cyclopentyl-2-oxo-ethyl)-2-oxo-1,2,4,5-tetrahydro-3H-1,3,4-benzotriazepin-3-yl]-acetylamino}-benzoic acid] showed a Ki of 12.6 nM.
In the case of `O=C(O)Cc1cccc(NC(=O)CN2NC(C3CCCCC3)c3ccccc3N(CC(=O)C3CCCC3)C2=O)c1` (racemic) [Example 5, (+/−)-(3-{2-[5-Cyclohexyl-1-(2-cyclopentyl-2-oxo-ethyl)-2-oxo-1,2,4,5-tetrahydro-3H-1,3,4-benzotriazepin-3-yl]-acetylamino}-phenyl)-acetic acid], the Ki is reported as 79.4 nM.
`O=C(CN1NC(C2CCCCC2)c2ccccc2N(CC(=O)C2CCCC2)C1=O)Nc1cccc(-c2nc(=O)o[nH]2)c1` (racemic) [Example 16, (+/−)-2-[5-Cyclohexyl-1-(2-cyclopentyl-2-oxo-ethyl)-2-oxo-1,2,4,5-tetrahydro-3H-1,3,4-benzotriazepin-3-yl]-N-[3-(5-oxo-2,5-dihydro-[1,2,4]oxadiazol-3-yl)-phenyl]-acetamide] was tested, and the Ki was 0.0794 nM.
For `O=C(O)Cc1cccc(NC(=O)CN2NC(C3CCCCC3)c3ccccc3N(CC(=O)C3CCCCC3)C2=O)c1` (single isomer, unassigned; (-)) [Example 14, (−)-(3-{2-[5-Cyclohexyl-1-(2-cyclohexyl-2-oxo-ethyl)-2-oxo-1,2,4,5-tetrahydro-3H-1,3,4-benzotriazepin-3-yl]-acetylamino}-phenyl)-acetic acid], the Ki was 0.1 nM.
In the case of `O=C(O)Cc1cccc(NC(=O)CN2NC(C3CCCCC3)c3ccccc3N(CC(=O)C3CCCCC3)C2=O)c1` (single isomer, unassigned; (+)) [Example 13, (+)-(3-{2-[5-Cyclohexyl-1-(2-cyclohexyl-2-oxo-ethyl)-2-oxo-1,2,4,5-tetrahydro-3H-1,3,4-benzotriazepin-3-yl]-acetylamino}-phenyl)-acetic acid], the Ki is reported as 3.98 nM.
`O=C(CN1NC(C2CCCCC2)c2ccccc2N(CC(=O)C2CCCCC2)C1=O)Nc1cccc(C(=O)O)c1` (racemic) [Example 9, (+/−)-3-{2-[5-Cyclohexyl-1-(2-cyclohexyl-2-oxo-ethyl)-2-oxo-1,2,4,5-tetrahydro-3H-1,3,4-benzotriazepin-3-yl]-acetylamino}-benzoic acid] gave a Ki of 2.24 nM.
With `Cc1cccc(NC(=O)CN2NC(C3CCCCC3)c3ccccc3N(CC(=O)C(C)(C)C)C2=O)c1` (racemic) [Example 3, (+/−)-2-[5-Cyclohexyl-1-(3,3-dimethyl-2-oxo-butyl)-2-oxo-1,2,4,5-tetrahydro-3H-3H-1,3,4-benzotriazepin-3-yl]-N-m-tolyl-acetamide] the Ki was 44.7 nM.
In the case of `O=C(O)Cc1cccc(NC(=O)CN2NC(C3CCCCC3)c3ccccc3N(CC(=O)C3CCCCC3)C2=O)c1` (racemic) [Example 10, (+/−)-(3-{2-[5-Cyclohexyl-1-(2-cyclohexyl-2-oxo-ethyl)-2-oxo-1,2,4,5-tetrahydro-3H-1,3,4-benzotriazepin-3-yl]-acetylamino}-phenyl)-acetic acid], the Ki is reported as 0.363 nM.
With `CNc1cccc(NC(=O)CN2NC(C3CCCCC3)c3ccccc3N(CC(=O)C(C)(C)C)C2=O)c1` (racemic) [Example 2, (+/−)-2-[5-Cyclohexyl-1-(3,3-dimethyl-2-oxo-butyl)-2-oxo-1,2,4,5-tetrahydro-3H-1,3,4-benzotriazepin-3-yl]-N-(3-methylamino-phenyl)-acetamide] the Ki was 16.2 nM.
`O=C(CN1NC(C2CCCCC2)c2ccccc2N(CC(=O)C2CCCC2)C1=O)Nc1cccc(-c2nnn[nH]2)c1` (racemic) [Example 15, (+/−)2-[5-Cyclohexyl-1-(2-cyclopentyl-2-oxo-ethyl)-2-oxo-1,2,4,5-tetrahydro-3H-1,3,4-benzotriazepin-3-yl]-N-[3-(2H-tetrazol-5-yl)-phenyl]-acetamide] was tested, and the Ki was 0.501 nM.
Compound `O=C(O)CCc1cccc(NC(=O)CN2NC(C3CCCCC3)c3ccccc3N(CC(=O)C3CCCC3)C2=O)c1` (racemic) [Example 6, (+/−)-3-(3-(2-[5-Cyclohexyl-1-(2-cyclopenlyl-2-oxo-ethyl)-2-oxo-1,2,4,5tetrahydro-3H-1,3,4-benzotriazepin-3-yl]-acetylamino}-phenyl)-propionic acid] has a Ki of 0.759 nM.
